Structures are written as SMILES.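 Grown in 96-well plates, cells were treated for 48 hours with each compound at five concentrations. Insufficient inhibition: endpoint recorded as highest concentration tested. At the GI50, growth is halved. TGI: concentration producing complete growth inhibition.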

Some test systems named below: UO-31 renal; HS 578T breast; MDA-N; NCI-H23 lung; SF-268 CNS; 786-0 renal; M14 melanoma; HT29 colon; DU-145 prostate; SF-295 CNS; MDA-MB-231 breast; CAKI-1 renal; SN12C renal.
What all share (experiment): NCI anticancer screen, dose series, 48 h

Consider `O=C(/C(=C/c1cccs1)c1ccccc1)c1ccccc1`, for which the TGI in the experiment on UO-31 renal, with HS 578T breast, in the experiment with MDA-N, with NCI-H23 lung, in the experiment on SF-268 CNS and in the experiment on 786-0 renal was > 100 µM each time. In addition, the TGI in the experiment on M14 melanoma, in the experiment with HT29 colon, with DU-145 prostate, with SF-295 CNS, in the experiment with MDA-MB-231 breast and with CAKI-1 renal was > 100 µM throughout. For the same compound, the TGI in the experiment with SN12C renal is > 100 µM.
For `O=C1O[C@H]2[C@@H]3OC(=O)c4cc(O)c(O)c(O)c4-c4c(cc(O)c(O)c4O)C(=O)OC[C@H]2O[C@@H](OC(=O)c2cc(O)c(O)c(O)c2)[C@@H]3OC(=O)c2cc(O)c(O)c3c2[C@@H]2C1=CC(=O)C(O)(O)C2(O)O3` (some centres not stated), the TGI with UO-31 renal is > 100 µM; in the experiment with HS 578T breast, > 100 µM; in the experiment with MDA-N, 34.6 µM; with NCI-H23 lung, > 100 µM; in the experiment on SF-268 CNS, > 100 µM; with 786-0 renal it was 39.8 µM. Moreover, the TGI in the experiment on M14 melanoma is > 100 µM; in the experiment on HT29 colon, 34.2 µM; with DU-145 prostate, > 100 µM; in the experiment on SF-295 CNS, > 100 µM; with MDA-MB-231 breast it was 40.2 µM; with CAKI-1 renal, 27.5 µM. The same compound returned a TGI in the experiment with SN12C renal of 32.3 µM.
Take `S=C1SC(c2ccc(Cl)cc2)(c2ccc(Cl)cc2)c2ccccc21`: the TGI with UO-31 renal, in the experiment on HS 578T breast, with MDA-N, in the experiment with NCI-H23 lung, with SF-268 CNS and with 786-0 renal was > 100 µM throughout. Also, the TGI in the experiment with M14 melanoma, with HT29 colon, with DU-145 prostate, with SF-295 CNS, in the experiment on MDA-MB-231 breast and with CAKI-1 renal was > 100 µM each time. Besides, in the experiment with SN12C renal, the TGI was > 100 µM.
On to `CC(NC(=O)C(N)CC(=O)O)NC(=O)N1CCCC1` (configuration not stated), for which the TGI in the experiment with UO-31 renal, in the experiment on HS 578T breast, in the experiment on MDA-N, in the experiment on NCI-H23 lung, in the experiment on SF-268 CNS and in the experiment on 786-0 renal was > 100 µM each time. Further, the TGI with M14 melanoma, in the experiment with HT29 colon, with DU-145 prostate, in the experiment with SF-295 CNS, with MDA-MB-231 breast and in the experiment on CAKI-1 renal was > 100 µM in each case. Besides, the TGI with SN12C renal was > 100 µM.
On to `O=C(N/C(=C\c1ccccc1)C1Nc2ccccc2C(=O)O1)c1ccccc1` (configuration not stated), for which the TGI is 44.2 µM in the experiment on UO-31 renal; 99.7 µM with HS 578T breast; 56.6 µM in the experiment on MDA-N; > 100 µM with NCI-H23 lung; > 100 µM with SF-268 CNS; 59 µM in the experiment on 786-0 renal. The TGI is 52.1 µM with M14 melanoma; > 100 µM with HT29 colon; > 100 µM with DU-145 prostate; > 100 µM in the experiment with SF-295 CNS; > 100 µM in the experiment on MDA-MB-231 breast; > 100 µM with CAKI-1 renal. Moreover, the TGI with SN12C renal came out at 84.6 µM.
For the compound `CC(=O)Nc1ccc(-c2nc3ccccc3s2)cc1O`, the TGI with UO-31 renal, with HS 578T breast, in the experiment with MDA-N, in the experiment on NCI-H23 lung, in the experiment with SF-268 CNS and in the experiment with 786-0 renal was > 100 µM in each case. Moreover, the TGI in the experiment with M14 melanoma, in the experiment with HT29 colon, in the experiment with DU-145 prostate, with SF-295 CNS, in the experiment with MDA-MB-231 breast and in the experiment with CAKI-1 renal was > 100 µM each time. Also, the TGI in the experiment on SN12C renal is > 100 µM.
`CC1(C)O[C@@H]2[C@@H]3OC(=O)C[C@@H]3[C@@H](COCc3ccccc3)[C@@H]2O1`: the TGI with UO-31 renal, in the experiment on HS 578T breast, in the experiment on MDA-N, with NCI-H23 lung, in the experiment with SF-268 CNS and in the experiment on 786-0 renal was > 100 µM in each case. The TGI in the experiment on M14 melanoma, with HT29 colon, in the experiment on DU-145 prostate, with SF-295 CNS, in the experiment with MDA-MB-231 breast and with CAKI-1 renal was > 100 µM each time. In addition, in the experiment with SN12C renal, the TGI is > 100 µM.
With `COC(=O)CCC(=O)c1ccc2c(c1)CC1(C2)Cc2ccc3c(c2C1)CCCC3=O` (configuration not stated), the TGI in the experiment with UO-31 renal was > 59.3 µM; with HS 578T breast it was > 100 µM; with MDA-N, 47.9 µM; in the experiment with NCI-H23 lung, > 76.5 µM; in the experiment on SF-268 CNS it was > 100 µM; in the experiment with 786-0 renal it was > 85.2 µM. Moreover, the TGI with M14 melanoma is > 57 µM; in the experiment with HT29 colon it was > 76.9 µM; in the experiment with DU-145 prostate, > 100 µM; in the experiment on SF-295 CNS, 79.3 µM; with MDA-MB-231 breast, > 100 µM; in the experiment on CAKI-1 renal it was 78.1 µM. Further, the TGI with SN12C renal is > 100 µM.
Consider `O=C(O)c1cc(Sc2ccc([N+](=O)[O-])c(C(=O)O)c2)ccc1[N+](=O)[O-]`, for which the TGI in the experiment on UO-31 renal, in the experiment with HS 578T breast, in the experiment on MDA-N, in the experiment with NCI-H23 lung, in the experiment with SF-268 CNS and in the experiment on 786-0 renal was > 100 µM throughout. Further, the TGI in the experiment on M14 melanoma, in the experiment with HT29 colon, in the experiment on DU-145 prostate, in the experiment with SF-295 CNS, in the experiment with MDA-MB-231 breast and in the experiment on CAKI-1 renal was > 100 µM each time. Besides, the TGI in the experiment with SN12C renal was > 100 µM. In addition, the GI50 in the experiment with NCI-H23 lung and in the experiment on CAKI-1 renal was > 100 µM each time.
In the case of `CCCCOC(=O)C1CN2C(=NC1(C(F)(F)F)C(F)(F)F)Sc1ccccc12` (configuration not stated), the TGI in the experiment with UO-31 renal, in the experiment on HS 578T breast, with MDA-N, in the experiment with NCI-H23 lung, in the experiment with SF-268 CNS and in the experiment on 786-0 renal was > 100 µM in each case. Besides, the TGI in the experiment on M14 melanoma, in the experiment on HT29 colon, with DU-145 prostate, in the experiment with SF-295 CNS, with MDA-MB-231 breast and with CAKI-1 renal was > 100 µM throughout. The TGI in the experiment on SN12C renal was > 100 µM.
